These results are taken from the METLIN SMRT retention time set (Domingo-Almenara et al. 2019).

A short description of the data set: gradient 5% acetonitrile 3 min, to 50% in 2 min, to 85% in 15 min, held 3 min, 100 µL/min. The settings on record: column: Zorbax Extend-C18 2.1 x 50 mm; eluents: water / acetonitrile, 0.1% formic acid. The procedure, abridged:
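Standards, all pure, were combined into mixtures of ~100 molecules and run at 100 μL/min on a Zorbax Extend-C18 column (2.1 × 50 mm, 1.8 μm) with water and acetonitrile, each containing 0.1% formic acid. A coupled quadrupole time-of-flight mass spectrometer operated in positive and negative ionization mode. Retention time values come from computationally picked adduct peaks, each inspected manually.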
On to `COc1ccc(OC)c(NC(=O)c2c(N3CCCC3=O)c3cc(F)ccc3n2C)c1`, for which the RP-LC retention time was 785 s.

The molecule `CCCn1c(=O)c(C)nc2cc(-c3noc(COc4ccc(OC)cc4)n3)ccc21` came in with an RP-LC retention time of 1040 s.

`CCOC(=O)C1=C(C)NC2=C(C(=O)C(C(=O)OC)C(C)C2)C1c1cccc(OCC)c1` (stereo unspecified) came in with an RP-LC retention time of 908 s.

With `COc1ccccc1-c1nn2c(-c3ccc4ccccc4n3)nnc2s1`, the RP-LC retention time was found to be 1040 s.

On to `Cc1sc(NC(=O)c2cccnc2)nc1-c1ccc2c(c1)NC(=O)C(C)O2` (stereo unspecified), for which the RP-LC retention time amounted to 718 s.

Molecule `O=C(NC1CCN(C(=O)c2cc(-c3cccs3)[nH]n2)CC1)c1ccccc1Cl` returned an RP-LC retention time of 718 s.

Consider `O=C(NC1CC1)C1CCN(c2nc(-c3ccc(Cl)cc3)no2)CC1`, for which the RP-LC retention time amounted to 859 s.

Consider `COc1ccc(S(=O)(=O)CCC(=O)Nc2sc3c(c2C(N)=O)CCC(C)C3)cc1` (stereo unspecified), for which the RP-LC retention time was 793 s.

As for `Cc1ccc2c(c1)N(S(C)(=O)=O)CCC(C(=O)NCc1ccccc1C)O2` (stereo unspecified), the RP-LC retention time was determined as 900 s.

With `COc1ccc(NC(=O)Nc2cccn3c(C4CCC4)nnc23)cc1OC`, the RP-LC retention time stood at 718 s.

The molecule `CCOc1cc(-c2nc(C3CC(=O)N(c4ccc(OC)cc4)C3)no2)cc(OCC)c1OCC` (stereo unspecified) displayed an RP-LC retention time of 1040 s.

Consider `Cc1ccc(CN2C[C@@H]3C(=O)N(Cc4ccc5c(c4)OCO5)C(=O)[C@@H]3C2)cc1`, for which the RP-LC retention time was determined as 760 s.

Molecule `CN1C(=O)C2(CCN(C(=O)c3cccc(F)c3)C2)c2ccccc21` (stereo unspecified) had an RP-LC retention time of 765 s.

Turning to `O=C(O)CCc1conc1-c1ccccc1F`, the RP-LC retention time was 712 s.

For `CN(C)c1ccc(-c2nc3cnccn3c2NC2CCCC2)cc1`, the RP-LC retention time was determined as 764 s.

`Cc1ccc(CNC(=O)N2CCC3(CC2)NC(=O)c2ccc(Cl)cc2N3C)cc1` had an RP-LC retention time of 843 s.

Regarding `CCn1ncc(Br)c1C(=O)Nc1ccccc1Cl`, the RP-LC retention time is 1090 s.

`Cc1ccc(NC(=O)NC2CCN(c3cc(C)cc(C)c3)C2=O)cc1` (stereo unspecified) came in with an RP-LC retention time of 607 s.

Turning to `COc1ccc(CC(=O)N2CCCC2c2cc(C(C)C)on2)cc1` (stereo unspecified), the RP-LC retention time came out at 868 s.

`Cc1ccc(NC(=O)C2CCN(S(C)(=O)=O)c3ccccc3O2)cc1Cl` (stereo unspecified): the RP-LC retention time turned out to be 985 s.

In turn, `CN(C)CCNC(=O)C1CCN(c2nc3ccc(-c4ccccc4)nc3s2)CC1` yielded an RP-LC retention time of 667 s.

Regarding `CCN(CC)CCn1c(NCc2ccc(C)cc2)nc2ccccc21`, the RP-LC retention time turned out to be 584 s.

Take `Cc1ccoc1C(=O)Nc1ccc(C(N)=O)cc1`: the RP-LC retention time amounted to 629 s.

Molecule `O=C(NCCN1CCCCC1)c1ccc2c(=O)n(-c3ccccc3)c(N3CCCC3)nc2c1` showed an RP-LC retention time of 614 s.

Regarding `Cc1cc(NC(=O)CN(C)CCC#N)nc2c1c(=O)oc1ccccc12`, the RP-LC retention time was 694 s.

The molecule `Cc1ccc(C)c(N2CCN(Cc3nc(-c4ccc(N5CCCCC5)nc4)no3)CC2)c1` returned an RP-LC retention time of 1160 s.

As to `Cn1nc(C(=O)N2CCCC(C(=O)NC3CC3)C2)c2c1CCN(C(=O)c1cccc(F)c1)C2` (stereo unspecified), the RP-LC retention time was 646 s.

`O=C(NCc1ccc2c(c1)N(C(=O)c1ccccc1)CC2)NC1CCCC1` registered an RP-LC retention time of 818 s.

Molecule `CCn1cc(-c2ccccc2)cc1C(=O)NC(C)c1cccnc1` (stereo unspecified) displayed an RP-LC retention time of 692 s.

On to `CC(C)NC(=O)NC1CCN(c2ccc(F)cc2)C1=O` (stereo unspecified), for which the RP-LC retention time turned out to be 659 s.

In turn, `COC(=O)c1cc(S(=O)(=O)N2CCCC2C(=O)Nc2ccc(C)c(C)c2)cn1C` (stereo unspecified) showed an RP-LC retention time of 939 s.

In turn, `CC(C(=O)N1CC(n2cc(COCC3CC3)nn2)C1)c1ccccc1` (stereo unspecified) yielded an RP-LC retention time of 701 s.

The molecule `Cc1cccc(C(=O)Nc2nc(-c3ccc4c(c3)N(C)C(=O)CO4)cs2)c1` came in with an RP-LC retention time of 985 s.

Regarding `CCOC(=O)COC(=O)c1cn(-c2ccc(C)cc2)c(=O)c2ccccc12`, the RP-LC retention time was 718 s.

Regarding `Cc1ccc(Cl)cc1NS(=O)(=O)c1cc(-c2cc(C(F)(F)F)on2)sc1C`, the RP-LC retention time amounted to 1240 s.

Regarding `Cc1ccccc1CNC(=O)C1(C)CCCN(C(=O)Nc2ccccc2C)C1` (stereo unspecified), the RP-LC retention time was 959 s.

The molecule `CC1=C(c2ccccc2)S(=O)(=O)N=C1N1CCCN(C(=O)C2CCCCC2)CC1` displayed an RP-LC retention time of 868 s.

Turning to `CCN1C(=O)C(CC(=O)NCCOC)Sc2ncccc21` (stereo unspecified), the RP-LC retention time is 593 s.

As to `COc1cccc(NC(=O)C2CC(=O)N(c3ccc4c(c3)CCN4C(C)=O)C2)c1` (stereo unspecified), the RP-LC retention time came out at 693 s.

As to `Cc1cc(C)cc(NC(=O)CN2C(=O)C(C(=O)N3CCCC3)Sc3ccccc32)c1` (stereo unspecified), the RP-LC retention time came out at 1070 s.

As for `Cn1cnc2cc(CNC(=O)c3cccc(Cl)c3)ccc21`, the RP-LC retention time is 631 s.

`COc1ccc(N2CCN(c3cc(C(=O)O)c4cc(NS(C)(=O)=O)ccc4n3)CC2)cc1` had an RP-LC retention time of 609 s.

For `CCN1C(=O)c2cc(C(=O)NCc3cccc(C)c3)nn2CC1(C)C(=O)NC1CCCC1` (stereo unspecified), the RP-LC retention time came out at 812 s.

In the case of `Cn1nc(C(=O)N2CCCCC2)c2c1CCN(C(=O)CCC(=O)NC1CCCC1)C2`, the RP-LC retention time was found to be 666 s.

Regarding `Cc1cccc(C)c1NC(=O)N1CC(n2cnnc2-c2ccccc2)C1`, the RP-LC retention time was found to be 715 s.

Turning to `O=C(NCC1CC1)c1cn(C2CN(C(=O)Nc3ccc4c(c3)OCCO4)C2)nn1`, the RP-LC retention time came to 685 s.

Consider `CCOC(=O)c1c(NCCc2cccs2)c2ccc(Cl)cc2[nH]c1=O`, for which the RP-LC retention time amounted to 821 s.

On to `CCOc1cc(=O)n2c(c1C(=O)NC1CC1)CCCCC2`, for which the RP-LC retention time was 611 s.

Regarding `CCCS(=O)(=O)N1CCC(F)(c2nc(-c3ccccc3)no2)CC1`, the RP-LC retention time is 1080 s.

In the case of `COc1ccc(Cl)cc1NC(=O)NCCc1cn(CC(C)C)c2ncccc12`, the RP-LC retention time stood at 980 s.

`COc1ccc2c(CCNC(=O)c3ccccc3OC)c[nH]c2c1` returned an RP-LC retention time of 788 s.

`CCc1nc(-c2csc(S(=O)(=O)N3CCCC(C(=O)Nc4ccc(C)cc4C)C3)c2)no1` (stereo unspecified) displayed an RP-LC retention time of 1070 s.

Turning to `COc1ccc(NC(=O)N2CCC3(CC2)CN(c2ccccc2)C3=O)cc1OC`, the RP-LC retention time amounted to 771 s.

For the molecule `CCc1ccc(NC(=O)c2cc(C)n3nccc3n2)cc1`, the RP-LC retention time is 1030 s.

Molecule `Cc1ccc(S(=O)(=O)N(CCN2CCCCC2C)CC(=O)N2CCNCC2)c(C)c1` (stereo unspecified) came in with an RP-LC retention time of 588 s.

`CC(=O)c1cccc(NC(=O)c2nn(C)c(C(F)(F)F)c2Cl)c1` came in with an RP-LC retention time of 924 s.

The molecule `CCc1ccccc1S(=O)(=O)N1CCC(N(C(=O)COC)C2CCOCC2)CC1` displayed an RP-LC retention time of 823 s.

In turn, `Cc1noc(C)c1S(=O)(=O)N1CCC2(CC1)NCCc1c2[nH]c2ccccc12` displayed an RP-LC retention time of 588 s.

Regarding `CCC(C)N(CCNC(=O)Cc1noc2ccccc12)Cc1ccco1` (stereo unspecified), the RP-LC retention time came out at 664 s.

Molecule `COc1ccc(NC(=O)C2CCCN(S(=O)(=O)c3c[nH]c(C(=O)N4CCCC4)c3)C2)cc1Cl` (stereo unspecified) had an RP-LC retention time of 819 s.

`COc1ccccc1C(=O)N1C[C@H](c2nc(-c3ccncc3)no2)[C@@H](C)C1` had an RP-LC retention time of 737 s.

Take `CCC(C)NC(=O)NC1CCN(C2=NS(=O)(=O)C(c3ccc(Cl)cc3)=C2C)CC1` (stereo unspecified): the RP-LC retention time amounted to 883 s.

The molecule `C[C@H](CSC(=O)c1ccccc1)C(=O)N1c2ccccc2C[C@H]1C(=O)O` displayed an RP-LC retention time of 877 s.

With `CCCCN(C)C(=O)Cn1ccn2nc(-c3ccc(F)cc3)c(CO)c2c1=O`, the RP-LC retention time was 765 s.

Turning to `COc1cc(OC)c(NS(=O)(=O)c2c(C)sc(C)c2-c2cc(C(F)(F)F)on2)cc1Cl`, the RP-LC retention time worked out at 1170 s.

`CCc1ccc(-c2cc(C(=O)N3CCN(Cc4noc5ccccc45)CC3)[nH]n2)cc1` came in with an RP-LC retention time of 772 s.

Consider `Cc1sc2ncnc(SCC(=O)Nc3nc(-c4ccccc4)ns3)c2c1C`, for which the RP-LC retention time came out at 1080 s.

Regarding `Cn1cc(S(=O)(=O)N2CCC(C(=O)Nc3cccc(C#N)c3)CC2)cc1C(=O)N1CCCC1`, the RP-LC retention time was 751 s.

`O=C(Nc1nc(-c2ccc(F)cc2)cs1)c1cccc(F)c1` showed an RP-LC retention time of 1060 s.

Regarding `O=C(NCc1ccc(C(F)(F)F)cc1)C1=C2CCCN2c2ccccc2S1(=O)=O`, the RP-LC retention time came to 922 s.

`FC1(c2nc(-c3ccccc3)no2)CCN(C2CCOCC2)CC1` had an RP-LC retention time of 636 s.

`Cc1ccc(-c2nc3ccccc3[nH]2)cc1NC(=O)C1CCCO1` (stereo unspecified) yielded an RP-LC retention time of 615 s.

Turning to `COc1ccc(C2CC(=O)N(c3ccc(Cl)cc3)C(=O)C2)cc1`, the RP-LC retention time came to 942 s.

In the case of `Cc1ccc(Sc2ccccc2N2CCNCC2)c(C)c1`, the RP-LC retention time worked out at 869 s.

On to `CCOC(=O)c1ccc(CN2C(=O)CSC2=O)cc1`, for which the RP-LC retention time came to 786 s.

The molecule `CC(C)Sc1ccc(CC(=O)NCC(C)(O)c2ccccc2)cc1` (stereo unspecified) yielded an RP-LC retention time of 841 s.

Turning to `CCn1cc(CCNC(=O)c2c(F)cccc2Cl)c2cccnc21`, the RP-LC retention time was 708 s.

For the molecule `Cc1ccc2c(c1)C1(CCN(CCc3nc(-c4ccccc4)oc3C)CC1)OC(=O)N2`, the RP-LC retention time was found to be 747 s.

`Cc1cc(Br)ccc1NC(=O)Cc1csc(Nc2ccc(Cl)cn2)n1`: the RP-LC retention time turned out to be 1040 s.

`CCCNC(=O)CC1CCN(C(=O)c2[nH]c(C)c(C(=O)OC)c2C)CC1` came in with an RP-LC retention time of 657 s.

In turn, `Clc1ccc(Sc2c(-c3ccc(Br)cc3)nc3ccccn23)cc1` came in with an RP-LC retention time of 1290 s.
